Test results reported in paper PMC6100301, “Cytotoxic and N-Acetyltransferase Inhibitory Meroterpenoids from Ganoderma cochlear” (Molecules : A Journal of Synthetic Chemistry and Natural …, 2018).

Tests used:
recombinant NAT2 = biological target: T1, recombinant NAT2 (Homo sapiens, UniProt P11245); test: N-Acetyltransferase (NAT) inhibition, fluorescent probe assay; type: biochemical; conditions: 30 min incubation; for NAT2 inhibition at 10 μM: positive control quercetin 10 μM (Figure 4)
T1 construct: purchased Corning Company, Corning, NY, USA 456282
T1 sequence (P11245 1-290): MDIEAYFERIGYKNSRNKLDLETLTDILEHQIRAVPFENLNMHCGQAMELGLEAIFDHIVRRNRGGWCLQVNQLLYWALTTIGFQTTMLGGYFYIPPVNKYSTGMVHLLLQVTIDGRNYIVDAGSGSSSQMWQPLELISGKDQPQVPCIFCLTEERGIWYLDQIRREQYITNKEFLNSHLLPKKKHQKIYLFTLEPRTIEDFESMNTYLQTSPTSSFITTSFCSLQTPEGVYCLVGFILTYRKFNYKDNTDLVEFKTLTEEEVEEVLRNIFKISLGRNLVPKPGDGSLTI

[1] = tested on: H1975 human lung cancer cell line; test: Cytotoxicity, CCK-8 cell viability assay; type: cell-based; conditions: for Cytotoxic activity against H1975 cells at 40 μM: screening (Figure S46); for IC50: Homo sapiens, NCI-H1975, H1975 cells, CCK-8 assay, 24 h drug treatment
Method: (§1) All the isolated meroterpenoids were evaluated for their cytotoxic activity against three human lung cancer cell lines (H1975, PC9, A549). […] Besides, 2 and 5 are also found to be active against H1975 and PC9 cells at 40 μM. With this, the cytotoxic potency of 2 and 5 toward three cancer cell lines were further determined using the CCK-8 assay.
(§2) The human NSCLC cell line (NCL-H1975) was purchased from Shanghai Cell Bank of Chinese Academy of Sciences, (Shanghai, China). PC9 and A549 were obtained from American Type Culture Collection (ATCC, Manassas, VA, USA). Cells were cultured in DMEM (Gibco, Grand Island, NY, USA) with 4.5 g/L glucose and 10% FBS (Gibco, Grand Island, NY, USA). Erlotinib used in the experiments were purchased from Selleck (Selleck Chemicals, Houston, TX, USA). Cytotoxicity was determined using the previously described method. Three human lung cancer cell lines were incubated in 96-well plates (5000 cells/well) respectively to attach overnight and then exposed to drug treatments for additional 24 h. And the CCK solution was added, after 2 h of incubation, the absorbance was measured at a wavelength of 450 nm. Cell viability was measured by a TransDetect® Cell Counting Kit (TransGen Biotech, Beijing, China). The IC50 values were calculated using the GraphPad Prism 5.0 (GraphPad Software, San Diego, CA, USA).

[2] = tested on: A549 human lung cancer cell line; test: Cytotoxicity, CCK-8 cell viability assay; type: cell-based; conditions: for Cytotoxic activity against A549 cells at 40 μM: screening (Figure S46); for IC50: Homo sapiens, A549 cells, CCK-8 assay, 24 h drug treatment
Method: as §1, §2

[3] = tested on: PC9 human lung cancer cell line; test: Cytotoxicity, CCK-8 cell viability assay; type: cell-based; conditions: for Cytotoxic activity against PC9 cells at 40 μM: screening (Figure S46); for IC50: Homo sapiens, PC-9, PC9 cells, CCK-8 assay, 24 h drug treatment
Method: as §1, §2

SMILES | NAT2 inhibition at 10 μM (recombinant NAT2) | Cytotoxic activity against H1975 cells at 40 μM [1] | IC50 [1] [µM] | Cytotoxic activity against A549 cells at 40 μM [2] | IC50 [2] [µM] | Cytotoxic activity against PC9 cells at 40 μM [3] | IC50 [3] [µM] | IC50 (recombinant NAT2; 0.5-10 μM, read-out: IC50 toward NAT2) [µM]
CC(C)=CCCC(C)=CCCC1=C[C@@](c2cc(O)ccc2O)(c2oc(-c3cc(O)ccc3O)cc2CCC=C(C)CCC=C(C)C)OC1=O [(−)-1, (−)-gancochlearol C] | could inhibit NAT2 |  |  |  |  |  |  | 
CC(C)=CCC/C(C)=C/CC/C(=C/Cc1cc(O)ccc1O)CO [Compound 5, ganomycin F] |  | active | 19.5 | most active | 21.6 | active | 35.7 | 
C#Cc1cccc(Nc2ncnc3cc(OCCOC)c(OCCOC)cc23)c1 [Erlotinib, reference compound] |  |  | 7.66 |  | 4.59 |  | 0.085 | 
CC(=O)OC/C(=C\Cc1cc(O)ccc1O)CC/C=C(\C)CCC=C(C)C [Compound 2, Gancochlearol D] |  | active | 32.4 | cytotoxic | 30.7 | active | 40.6 | 
CC(C)=CCCC(C)=CCCC1=C[C@](c2cc(O)ccc2O)(c2oc(-c3cc(O)ccc3O)cc2CCC=C(C)CCC=C(C)C)OC1=O [(+)-1, (+)-gancochlearol C] | more potent than quercetin |  |  |  |  |  |  | 5.29
